Results from patent publication US8846570B2, “Herbicidal compositions comprising 4-amino-3-chloro-5-fluoro-6-(4-chloro-2-fluoro-3-methoxyphenyl)pyridine-2-carboxylic acid or a derivative thereof and microtubule inhibiting herbicides” (Dow AgroSciences LLC, priority 2012, dated 2014).

Assays:
Assay in all cases: In-water applied, transplanted paddy rice, greenhouse: visual weed control
Format in all cases: in vivo
[1] = tested on: Echinochloa crus-galli (L.) Beauv. (ECHCG); conditions: 21 DAA
Method: (§1) Weed seeds or nutlets of the desired test plant species were planted in puddled soil (mud) prepared by mixing a shredded, non-sterilized mineral soil (50.5 percent silt, 25.5 percent clay, and 24 percent sand, with a pH of about 7.6 and an organic matter content of about 2.9 percent) and water at a 1:1 volumetric ratio. The prepared mud was dispensed in 365 mL aliquots into 16-ounce (oz.) non-perforated plastic pots with a surface area of 86.59 square centimeters (cm^2) leaving a headspace of 3 centimeters (cm) in each pot. Mud was allowed to dry overnight prior to planting or transplanting. Rice seeds were planted in Sun Gro MetroMix® 306 planting mixture, which typically has a pH of 6.0 to 6.8 and an organic matter content of about 30 percent, in plastic plug trays. Seedlings at the second or third leaf stage of growth were transplanted into 860 mL of mud contained in 32-oz. non-perforated plastic pots with a surface area of 86.59 cm^2 4 days prior to herbicide application. The paddy was created by filling the headspace of the pots with 2.5 to 3 cm of water. When required to ensure good germination and healthy plants, a fungicide treatment and/or other chemical or physical treatment was applied. The plants were grown for 4-22 days in a greenhouse with an approximate 14 h photoperiod which was maintained at about 29° C. during the day and 26° C. during the night. Nutrients were added as Osmocote® (19:6:12, N:P:K+minor nutrients) at 2 g per 16.-oz. pot and 4 g per 32-oz. pot. Water was added on a regular basis to maintain the paddy flood, and supplemental lighting was provided with overhead metal halide 1000-Watt lamps as necessary. The plants were employed for testing when they reached the first through fourth true leaf stage.
(§2) Treatments consisted of the acid or esters of 4-amino-3-chloro-5-fluoro-6-(4-chloro-2-fluoro-3-methoxy-phenyl)pyridine-2-carboxylic acid (compound A) each formulated as an SC and various herbicidal components alone and in combination. Forms of compound A were applied on an acid equivalent basis.
(§3) Treatment requirements for each compound or herbicidal component were calculated based upon the rates being tested, the concentration of active ingredient or acid equivalent in the formulation, an application volume of 2 mL per component per pot, and an application area of 86.59 cm^2 per pot.
(§4) For formulated compounds, a measured amount was placed in an individual 100 or 200 mL glass vial and was dissolved in a volume of 1.25% (v/v) Agri-Dex® crop oil concentrate to obtain application solutions.
(§5) For technical grade compounds, a weighed amount was placed in an individual 100 to 200 mL glass vial and was dissolved in a volume of acetone to obtain concentrated stock solutions. […] The concentrated stock solutions obtained were diluted with an equivalent volume of an aqueous mixture containing 2.5% (v/v) crop oil concentrate so that the final application solutions contained 1.25% (v/v) crop oil concentrate.
(§6) Applications were made by injecting, with a pipetter, appropriate amounts of the application solutions into the aqueous layer of the paddy. Control plants were treated in the same manner with the solvent blank. Applications were made so that all treated plant material received the same concentrations of acetone and crop oil concentrate.
(§7) The treated plants and control plants were placed in a greenhouse as described above and water was added as needed to maintain a paddy flood. After approximately 3 weeks the condition of the test plants as compared with that of the untreated plants was determined visually and scored on a scale of 0 to 100 percent where 0 corresponds to no injury or growth inhibition and 100 corresponds to complete kill.
(§8) Colby's equation was used to determine the herbicidal effects expected from the mixtures (Colby, S. R. 1967. Calculation of the synergistic and antagonistic response of herbicide combinations. Weeds 15:20-22.). […]

[2] = tested on: Echinochloa oryzoides (Ard.) Fritsch (ECHOR); conditions: 21 DAA
Method: as §1, §2, §3, §4, §5, §6, §7, §8

[3] = tested on: Leptochloa chinensis (L.) Nees (LEFCH); conditions: 21 DAA
Method: as §1, §2, §3, §4, §5, §6, §7, §8

[4] = tested on: Schoenoplectus Maritimes (L.) Lye (SCPMA); conditions: 21 DAA
Method: as §1, §2, §3, §4, §5, §6, §7, §8

[5] = tested on: Cyperus rotundus L. (CYPRO)
Method: as §1, with “When required to ensure good germination and healthy plants, a fungicide treatment and/or other chemical or physical treatment was applied. The plants were grown for 4-22 days in a greenhouse with an approximate 14 h photoperiod which was maintained at about 29° C. during the day and 26° C. during the night.” left out
Forms of compound A were applied on an acid equivalent basis.
as §4, §5, §6, §7
Colby's equation was used to determine the herbicidal effects expected from the mixtures (Colby, S. R. 1967. Calculation of the synergistic and antagonistic response of herbicide combinations. Weeds 15:20-22.).
The following equation was used to calculate the expected activity of mixtures containing two active ingredients, A and B: Expected=A+B−(A×B/100)

For COc1c(Cl)ccc(-c2nc(C(=O)O)c(Cl)c(N)c2F)c1F [Compound A Acid, 4-amino-3-chloro-6-(4-chloro-2-fluoro-3-methoxyphenyl)-5-fluoropyridine-2-carboxylic acid], the “Visual Weed Control (%) Obs” value ([1]; 8.75 g ae/ha) was 0%, the “Visual Weed Control (%) Obs” value ([1]; 17.5 g ae/ha) was 0% and the “Visual Weed Control (%) Obs” value ([1]; 35 g ae/ha) was 20%. The “Visual Weed Control (%) Obs” value ([2]; 8.75 g ae/ha) was 10%, the “Visual Weed Control (%) Obs” value ([2]; 17.5 g ae/ha) was 40% and the “Visual Weed Control (%) Obs” value ([2]; 35 g ae/ha) was 40%. The “Visual Weed Control (%) Obs” value ([3]; 8.75 g ae/ha) was 0%, the “Visual Weed Control (%) Obs” value ([3]; 17.5 g ae/ha) was 0% and the “Visual Weed Control (%) Obs” value ([3]; 35 g ae/ha) was 30%. For the same compound, the “Visual Weed Control (%) Obs” value ([4]; 8.75 g ae/ha) was 0%, the “Visual Weed Control (%) Obs” value ([4]; 17.5 g ae/ha) was 0% and the “Visual Weed Control (%) Obs” value ([4]; 35 g ae/ha) was 0%. The “Visual Weed Control (%) Obs” value ([5]; 20 DAA, 10.6 g ae/ha) was 10% and the “Visual Weed Control (%) Obs” value ([5]; 20 DAA, 21.2 g ae/ha) was 20%.

COc1c(Cl)ccc(-c2nc(C(=O)OCc3ccccc3)c(Cl)c(N)c2F)c1F [Compound A Benzyl Ester, benzyl ester of 4-amino-3-chloro-5-fluoro-6-(4-chloro-2-fluoro-3-methoxy-phenyl)pyridine-2-carboxylic acid] was tested, and the “Visual Weed Control (%) Obs” value ([1]; 4.38 g ae/ha) was 0%, the “Visual Weed Control (%) Obs” value ([1]; 8.75 g ae/ha) was 0% and the “Visual Weed Control (%) Obs” value ([1]; 17.5 g ae/ha) was 25%. For the same compound, the “Visual Weed Control (%) Obs” value ([2]; 4.38 g ae/ha) was 40%, the “Visual Weed Control (%) Obs” value ([2]; 8.75 g ae/ha) was 60% and the “Visual Weed Control (%) Obs” value ([2]; 17.5 g ae/ha) was 75%. For the same compound, the “Visual Weed Control (%) Obs” value ([3]; 35 g ae/ha) was 50%, the “Visual Weed Control (%) Obs” value ([3]; 70 g ae/ha) was 50% and the “Visual Weed Control (%) Obs” value ([4]; 4.38 g ae/ha) was 0%. The “Visual Weed Control (%) Obs” value ([4]; 8.75 g ae/ha) was 0%, the “Visual Weed Control (%) Obs” value ([4]; 17.5 g ae/ha) was 0% and the “Visual Weed Control (%) Obs” value ([5]; 20 DAA, 4.38 g ae/ha) was 50%. For the same compound, the “Visual Weed Control (%) Obs” value ([5]; 20 DAA, 8.75 g ae/ha) was 0%, the “Visual Weed Control (%) Obs” value ([5]; 20 DAA, 17.5 g ae/ha) was 90% and the “Visual Weed Control (%) Obs” value ([5]; 21 DAA, 8.75 g ae/ha) was 0%. The “Visual Weed Control (%) Obs” value ([5]; 21 DAA, 17.5 g ae/ha) was 0%.

In the case of CSC(=O)c1c(C(F)F)nc(C(F)(F)F)c(C(=O)SC)c1CC(C)C [Dithiopyr, S,S′-dimethyl-2-(difluoromethyl)-4-(2-methylpropyl)-6-(trifluoromethyl)-3,5-pyridinedicarbothioate], the “Visual Weed Control (%) Obs” value ([2]; 70 g ai/ha) is reported as 30% and the “Visual Weed Control (%) Obs” value ([4]; 70 g ai/ha) is reported as 0%.

For CCC(CC)Nc1c([N+](=O)[O-])cc(C)c(C)c1[N+](=O)[O-] [Pendimethalin, N-(1-ethylpropyl)-3,4-dimethyl-2,6-dinitrobenzenamine, reference compound], the “Visual Weed Control (%) Obs” value ([1]; 280 g ai/ha) was 20%, the “Visual Weed Control (%) Obs” value ([1]; 560 g ai/ha) was 0% and the “Visual Weed Control (%) Obs” value ([3]; 280 g ai/ha) was 40%. The “Visual Weed Control (%) Obs” value ([3]; 1120 g ai/ha) was 48%, the “Visual Weed Control (%) Obs” value ([4]; 560 g ai/ha) was 0% and the “Visual Weed Control (%) Obs” value ([5]; 21 DAA, 280 g ai/ha) was 0%. For the same compound, the “Visual Weed Control (%) Obs” value ([5]; 21 DAA, 560 g ai/ha) was 0%.
